What all share (type): functional
For test [1], the system named is MT4. The test is described as follows: Cytopathogenicity against HIV-2 induced replication in MT-4 cells was determined. Conditions: Homo sapiens, read-out: ED50 (the source's name). (In general: Cytopathic effects are the visible damage that an infection or toxin causes in cultured cells.)
Test [2] has as its system MT4. The test is described as follows: Cytotoxic dose to reduce the viability of MT-4 cells by 50 % was determined. Conditions: Homo sapiens, read-out: CD50 (the source's name).
Test [3] in a line: Ratio of CD50 value to that of ED50 value was determined and expressed as selectivity index.
Test [4] deals with MT4. The test is described as follows: Cytopathogenicity against HIV-1 induced, replication in MT-4 cells was determined. Particulars: Homo sapiens, read-out: ED50 (the source's name).

Molecules are shown by their SMILES.

As to `[C-]#[N+]C1CC(n2cc(C)c(=O)[nH]c2=O)OC1CO` (configuration not stated), the EC50 in the test with MT4 [1] and in the test on MT4 [4] was greater than 800 nM in each case. Moreover, in the test with MT4 [2], the CC50 was determined as 880 nM. Moreover, the Selectivity index in test [3] is less than 1.1.
Turning to `Cc1cn([C@H]2C[C@H](N=[N+]=[N-])[C@@H](CO)O2)c(=O)[nH]c1=O` [ZIDOVUDINE], the EC50 in the test on MT4 [1] and in the test on MT4 [4] was 4 nM throughout. Besides, in the test on MT4 [2], the CC50 is 6300 nM. Also, the Selectivity index in test [3] is 1580.
In the case of `[C-]#[N+]C1CC(n2ccc(=O)[nH]c2=O)OC1CO` (configuration not stated), the EC50 in the test with MT4 [1] and in the test with MT4 [4] was greater than 500000 nM throughout. The CC50 with MT4 [2] was no less than 500000 nM. In test [3], the Selectivity index is less than 1.

Values taken from ChEMBL document CHEMBL1124706, “Synthesis, antiretrovirus effects, and phosphorylation kinetics of 3'-isocyano-3'-deoxythymidine and 3'-isocyano-2',3'-dideoxyuridine” (1990).
